Assays:
Type in all cases: in vivo
[1] = tested on: wheat (winter wheat, Triticum aestivum); test: Test C preemergence, plant response rating; details: Preemergence
Method in brief: (§1)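 Visual injury score, 0 = no effect, 100 = complete control, assigned against untreated controls after 13 to 15 d in the greenhouse. Compounds were applied in a surfactant-containing non-phytotoxic solvent mix, preemergence to seeded loam/sand or silt loam soil, or postemergence to 1- to 4-leaf plants (2 to 18 cm).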

[2] = tested on: ryegrass, Italian (Italian ryegrass, Lolium multiflorum); test: Test C preemergence, plant response rating; details: Preemergence
Method in brief: as §1

[3] = tested on: oilseed rape (Brassica napus); test: Test C preemergence, plant response rating; details: Preemergence
Method in brief: as §1

[4] = tested on: foxtail, giant (giant foxtail, Setaria faberii); test: Test C preemergence, plant response rating; details: Preemergence
Method in brief: as §1

[5] = tested on: ragweed (common ragweed, Ambrosia elatior); test: Test C preemergence, plant response rating; details: Preemergence
Method in brief: as §1

[6] = tested on: crabgrass, large (large crabgrass, Digitaria sanguinalis); test: Test C preemergence, plant response rating; details: Preemergence
Method in brief: as §1

[7] = tested on: lambsquarters (Chenopodium album); test: Test C preemergence, plant response rating; details: Preemergence
Method in brief: as §1

[8] = tested on: morningglory (Ipomoea coccinea); test: Test C preemergence, plant response rating; details: Preemergence
Method in brief: as §1

[9] = tested on: velvetleaf (Abutilon theophrasti); test: Test C preemergence, plant response rating; details: Preemergence
Method in brief: as §1

[10] = tested on: nutsedge, yellow (yellow nutsedge, Cyperus esculentus); test: Test C preemergence, plant response rating; details: Preemergence
Method in brief: as §1

[11] = tested on: waterhemp (common waterhemp, Amaranthus rudis); test: Test C preemergence, plant response rating; details: Preemergence
Method in brief: as §1

corn (Zea mays) = test: Test C preemergence, plant response rating; details: Preemergence
Method in brief: as §1

[12] = tested on: blackgrass (Alopecurus myosuroides); test: Test C preemergence, plant response rating; details: Preemergence
Method in brief: as §1

soybean (Glycine max) = test: Test C preemergence, plant response rating; details: Preemergence
Method in brief: as §1

[13] = tested on: barnyardgrass (Echinochloa crus-galli); test: Test A postemergence, visual injury rating; details: 0 is no effect, 100 is complete control
Method in brief: (§2)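 Pre- and postemergence greenhouse screen. Soil: loam + sand. Spray carrier: solvent mixture, non-phytotoxic, with surfactant. Post timing at 1–2 leaves, height 2–10 cm. Readout: visual injury on a 0–100 scale roughly 10 days after application, untreated plants as reference.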

[14] = tested on: galium (catchweed bedstraw, Galium aparine); test: Test A postemergence, visual injury rating; details: 0 is no effect, 100 is complete control
Method in brief: as §2

[15] = tested on: blackgrass (Alopecurus myosuroides); test: Test A postemergence, visual injury rating; details: 0 is no effect, 100 is complete control
Method in brief: as §2

[16] = 31 g ai/ha, 0 to 100 scale, approximately 10 days

O=C(CCCCC(F)(F)F)c1c(Br)cccc1Oc1ncc(Cl)cn1 [Compound 82]
70: Plant response rating, Crabgrass, Large ([6]; 31 g ai/ha, scale 0 to 100) | Plant response rating, Lambsquarters ([7]; 125 g ai/ha, scale of 0 to 100)
100: Plant response rating, Waterhemp ([11]; 125 g ai/ha, scale of 0 to 100) | Plant response rating, Waterhemp ([11]; 62 g ai/ha, scale 0 to 100) | Barnyardgrass plant response rating (0 to 100 scale) ([13]; 125 g ai/ha) | Galium plant response rating (0 to 100 scale) ([14]; 125 g ai/ha)
98: Plant response rating, Foxtail, Giant ([4]; 125 g ai/ha, scale of 0 to 100) | Plant response rating, Crabgrass, Large ([6]; 125 g ai/ha, scale of 0 to 100)
80: Plant response rating, Foxtail, Giant ([4]; 31 g ai/ha, scale 0 to 100)
5: Plant response rating, Ryegrass, Italian ([2]; 125 g ai/ha, scale of 0 to 100) | Plant response rating, Ryegrass, Italian ([2]; 62 g ai/ha, scale 0 to 100) | Plant response rating, Oilseed Rape ([3]; 62 g ai/ha, scale 0 to 100) | Plant response rating, Corn (corn (Zea mays); 125 g ai/ha, scale of 0 to 100) | Plant response rating, Blackgrass ([12]; 125 g ai/ha, scale of 0 to 100) | Plant response rating, Blackgrass ([12]; 62 g ai/ha, scale 0 to 100)
10: Plant response rating, Morningglory ([8]; 125 g ai/ha, scale of 0 to 100) | Plant response rating, Velvetleaf ([9]; 125 g ai/ha, scale of 0 to 100)
30: Plant response rating, Ragweed ([5]; 125 g ai/ha, scale of 0 to 100) | Barnyardgrass plant response rating [13, 16]
0: Plant response rating, Wheat ([1]; 125 g ai/ha, scale of 0 to 100) | Plant response rating, Wheat ([1]; 31 g ai/ha, scale 0 to 100) | Plant response rating, Wheat ([1]; 62 g ai/ha, scale 0 to 100) | Plant response rating, Ryegrass, Italian ([2]; 31 g ai/ha, scale 0 to 100) | Plant response rating, Oilseed Rape ([3]; 31 g ai/ha, scale 0 to 100) | Plant response rating, Ragweed ([5]; 31 g ai/ha, scale 0 to 100) | Plant response rating, Morningglory ([8]; 31 g ai/ha, scale 0 to 100) | Plant response rating, Morningglory ([8]; 62 g ai/ha, scale 0 to 100) | Plant response rating, Velvetleaf ([9]; 31 g ai/ha, scale 0 to 100) | Plant response rating, Velvetleaf ([9]; 62 g ai/ha, scale 0 to 100) | Plant response rating, Nutsedge, Yellow ([10]; 125 g ai/ha, scale of 0 to 100) | Plant response rating, Nutsedge, Yellow ([10]; 31 g ai/ha, scale 0 to 100) | Plant response rating, Nutsedge, Yellow ([10]; 62 g ai/ha, scale 0 to 100) | Plant response rating, Corn (corn (Zea mays); 16 g ai/ha, scale 0 to 100) | Plant response rating, Corn (corn (Zea mays); 31 g ai/ha, scale 0 to 100) | Plant response rating, Corn (corn (Zea mays); 62 g ai/ha, scale 0 to 100) | Plant response rating, Blackgrass ([12]; 16 g ai/ha, scale 0 to 100) | Plant response rating, Blackgrass ([12]; 31 g ai/ha, scale 0 to 100) | Plant response rating, Soybean (soybean (Glycine max); 125 g ai/ha, scale of 0 to 100) | Plant response rating, Soybean (soybean (Glycine max); 31 g ai/ha, scale 0 to 100) | Plant response rating, Soybean (soybean (Glycine max); 62 g ai/ha, scale 0 to 100)
20: Plant response rating, Ragweed ([5]; 62 g ai/ha, scale 0 to 100) | Plant response rating, Lambsquarters ([7]; 31 g ai/ha, scale 0 to 100) | Plant response rating, Lambsquarters ([7]; 62 g ai/ha, scale 0 to 100)
60: Plant response rating, Crabgrass, Large ([6]; 16 g ai/ha, scale 0 to 100)
50: Plant response rating, Oilseed Rape ([3]; 125 g ai/ha, scale of 0 to 100) | Plant response rating, Waterhemp ([11]; 31 g ai/ha, scale 0 to 100)
90: Plant response rating, Foxtail, Giant ([4]; 62 g ai/ha, scale 0 to 100) | Plant response rating, Crabgrass, Large ([6]; 62 g ai/ha, scale 0 to 100) | Galium plant response rating [14, 16]
40: Blackgrass plant response rating [15, 16] | Blackgrass plant response rating (0 to 100 scale) ([15]; 125 g ai/ha)

Reference: patent publication US11053204B2, “Pyrimidinyloxy benzene derivatives as herbicides” (FMC Corporation, priority 2015, dated 2021)
